Experiment: Murine diet-induced obesity (DIO) model, Compounds B-D study
Type: in vivo, C57BL/6J mice
Conditions: DIO mice; for mean adipose weights versus control group: abdominal adipose tissue
Experimental: The effects of four representative compounds of the invention were tested in a mouse model of diet-induced obesity (DIO): • Compound A is (R)—N-(tert-butylsulfonyl)-4-(1-(5-(pyridin-3-yloxy)pyridin-2-yl)ethoxy)-3-(trifluoromethyl)benzamide; • Compound B is (R)-4-(1-(5-(cyclopropylmethoxy)pyridin-2-yl)propoxy)-N-((4-(2-(dimethylamino)ethoxy)phenyl)sulfonyl)-2,3-difluorobenzamide; • Compound C is (R)—N-((4-(2-(dimethylamino)ethoxy)piperidin-1l-yl)sulfonyl)-2,3-difluoro-4-(1-(5-(pyridin-2-yloxy)pyridin-2-yl)propoxy)benzamide; and • Compound D is (R)-2,3-difluoro-N-((4-methylpiperazin-1-yl)sulfonyl)-4-(1-(5-(pyridin-2-yloxy)pyridin-2-yl)propoxy)benzamide.
The mice used in these experiments were C57BL/6J mice fed a high-fat diet (D12492 from Research Diets) ad libitum during the study period. The vehicle and test article formulations were 10% w/v Solutol in water.
In this study, three compounds tested at 30 mg/kg were compared against vehicle control over a month. After their acclimation period, DIO mice were equally divided into groups of ten mice each based on body weight. The animals were pre-dosed for three days prior to formal dosing (once per day treatment every group), as well as weight and food intake were recorded from Day −2 onwards. From Day 1 to Day 27, the animals in the dosing group were administered orally by gavage at 5:00 p.m. every day. All animals were fasted overnight after dosing on Day 28 and Day 29. Then the blood (retro-orbital bleed) of mice from each group was collected at 7:00 a.m. to separate out the serum for measuring total cholesterol levels (TC), triglyceride (TG), aminotransferase alanine (ALT), aspartate aminotransferase (AST) and total bilirubin (TBil) levels on Day 29. On day 30, all animals were performed OGTT test (0 min, 15 min, 30 min, 60 min, 90 min and 120 min) and measured insulin levels (0 min, 15 min, 30 min and 60 min). On day 32, all animals were injected insulin after 4 hours fasting, then performed ITT test (0 min, 15 min, 30 min, 60 min and 90 min). On day 33, Epididymal white adipose tissue (eWAT), jejunum, liver, heart and brain were collected; eWAT, liver and heart weights were recorded. All of the adipose tissue in the abdominal cavity was collected and weighted, and the fatty tissue coefficient (body fat ratio) was calculated and then stored at −80° C. for inspection.
• 1. Body weight and Food Consumption: Pre-dose every day from Day −2 onwards. • 2. Day −2,—1 and Day 0: Handle mice and gavage with vehicle. • 3. Day 1˜27: Dose˜5:00 PM. • 4. Day 28: Dose˜5:00 PM. Fast overnight. • 5. Day 29: Determine total cholesterol levels and triglyceride, ALT, AST, total bilirubin levels˜7:00 AM. Resume feeding. • 6. Day 29: Dose˜5:00 PM. Fast overnight. • 7. Day 30: (No drug administration) Oral glucose tolerance test (OGTT) with glucose levels measured at Pre-dose, 15 min, 30 min, 60 min, 90 min and 120 min after the glucose challenge. And insulin levels will be test at time 0 min, 15 min, 30 min and 60 min after the glucose challenge. • 8. Day 30˜31: Dose˜5:00 PM. • 9. Day 32: (No drug administration) ITT test (two days after the OGTT test): Fast 4 h. After insulin injection, the levels of glucose will be measured at Pre-dose, 15 min, 30 min, 60 min and 90 min. • 10. After the ITT test. Collect serum with a terminal bleed from all 50 mice. • 11. Collect epidydimal WAT (eWAT) pad, jejunum, liver, heart, and brain. • 12. Record eWAT, liver, and heart weights. • 13. Before freezing tissue/serum: • (i) Assess Drug Concentration; serum, liver, eWAT, heart, jujenum, and brain. (25 serum samples; 5 mice/group will progress to biomarker study and remaining 25 serum samples saved for future analysis). • 14. Prepare liver, heart and eWAT tissue for histopathology analysis. • (ii) Liver for all 50 mice; HE staining to assess liver steatosis. • (iii) Heart or all 50 mice; HE and DAPI staining to assess cardiac morphology. […]

CC[C@@H](Oc1ccc(C(=O)NS(=O)(=O)N2CCN(C)CC2)c(F)c1F)c1ccc(Oc2ccccn2)cn1 [Compound D, (R)-2,3-difluoro-N-((4-methylpiperazin-1-yl)sulfonyl)-4-(1-(5-(pyridin-2-yloxy)pyridin-2-yl)propoxy)benzamide]
mean body weight versus control group (30 mg/kg oral daily): significantly lower than that of the control group from Day 15 to the end | overall food consumption versus control group (30 mg/kg oral daily): significantly lower than that of the control group | Body Weight (g)/Day (30 mg/kg oral daily, Day 1): 44.9 ± 4.3 g | Body Weight (g)/Day (30 mg/kg oral daily, Day 2): 44.3 ± 4 g | Body Weight (g)/Day (30 mg/kg oral daily, Day 3): 43.6 ± 3.9 g | Body Weight (g)/Day (30 mg/kg oral daily, Day 4): 43.7 ± 3.8 g | Body Weight (g)/Day (30 mg/kg oral daily, Day 5): 43.7 ± 3.6 g | Body Weight (g)/Day (30 mg/kg oral daily, Day 6): 43.5 ± 3.6 g | Body Weight (g)/Day (30 mg/kg oral daily, Day 7): 43.4 ± 3.5 g | Body Weight (g)/Day (30 mg/kg oral daily, Day 8): 43.7 ± 3.6 g | Body Weight (g)/Day (30 mg/kg oral daily, Day 9): 43.5 ± 3.6 g | Body Weight (g)/Day (30 mg/kg oral daily, Day 10): 43.3 ± 3.5 g | Body Weight (g)/Day (30 mg/kg oral daily, Day 11): 42.9 ± 3.4 g | Body Weight (g)/Day (30 mg/kg oral daily, Day 12): 42.6 ± 3.4 g | Body Weight (g)/Day (30 mg/kg oral daily, Day 13): 42.3 ± 3.4 g | Body Weight (g)/Day (30 mg/kg oral daily, Day 14): 42.3 ± 3.3 g | Body Weight (g)/Day (30 mg/kg oral daily, Day 15): 42.4 ± 3.2 g | Body Weight (g)/Day (30 mg/kg oral daily, Day 16): 42.3 ± 3.2 g | Body Weight (g)/Day (30 mg/kg oral daily, Day 17): 42.1 ± 3.4 g | Body Weight (g)/Day (30 mg/kg oral daily, Day 18): 42.2 ± 3.4 g | Body Weight (g)/Day (30 mg/kg oral daily, Day 19): 42.3 ± 3.5 g | Body Weight (g)/Day (30 mg/kg oral daily, Day 20): 42.3 ± 3.6 g | Body Weight (g)/Day (30 mg/kg oral daily, Day 21): 42.3 ± 3.6 g | Body Weight (g)/Day (30 mg/kg oral daily, Day 22): 42.3 ± 3.7 g | Body Weight (g)/Day (30 mg/kg oral daily, Day 23): 42.3 ± 3.7 g | Body Weight (g)/Day (30 mg/kg oral daily, Day 24): 42.2 ± 3.8 g | Body Weight (g)/Day (30 mg/kg oral daily, Day 25): 42.4 ± 3.4 g | Body Weight (g)/Day (30 mg/kg oral daily, Day 26): 42.5 ± 3.5 g | Body Weight (g)/Day (30 mg/kg oral daily, Day 27): 42.5 ± 3.7 g | Body Weight (g)/Day (30 mg/kg oral daily, Day 28): 42.5 ± 3.9 g | Body Weight (g)/Day (30 mg/kg oral daily, Day 29): 41.8 ± 3.8 g | Body Weight (g)/Day (30 mg/kg oral daily, Day 30): 39.5 ± 3.6 g | Body Weight (g)/Day (30 mg/kg oral daily, Day 31): 39.7 ± 3.9 g | Body Weight (g)/Day (30 mg/kg oral daily, Day 32): 38.9 ± 3.8 g | Body Weight (g)/Day (30 mg/kg, Day 0 (pre-dose)): 44.9 ± 4.3 g | eWAT coefficient versus control group (30 mg/kg, Day 33): slightly lower than that of the control group | eWAT weights versus control group (30 mg/kg, Day 33): significantly lower than that of the control group | Body Weight (g)/Day (30 mg/kg, Day −1 (pre-dose)): 44.8 ± 4.1 g | Body Weight (g)/Day (30 mg/kg, Day −2 (pre-dose)): 44.9 ± 4.1 g | mean adipose weights versus control group (30 mg/kg): significantly lower than that of the control group | ITT blood glucose versus control group (Day 32, at 15, 30, 60 and 90 minutes after insulin): significantly lower than that of the control group

CC[C@@H](Oc1ccc(C(=O)NS(=O)(=O)c2ccc(OCCN(C)C)cc2)c(F)c1F)c1ccc(OCC2CC2)cn1 [Compound B, (R)-4-(1-(5-(cyclopropylmethoxy)pyridin-2-yl)propoxy)-N-((4-(2-(dimethylamino)ethoxy)phenyl)sulfonyl)-2,3-difluorobenzamide]
mean body weight versus control group (30 mg/kg oral daily): significantly lower than that of the control group from Day 15 to the end | overall food consumption versus control group (30 mg/kg oral daily): significantly lower than that of the control group | Body Weight (g)/Day (30 mg/kg oral daily, Day 1): 42.2 ± 4.7 g | Body Weight (g)/Day (30 mg/kg oral daily, Day 2): 42.2 ± 4.5 g | Body Weight (g)/Day (30 mg/kg oral daily, Day 3): 42.3 ± 4.7 g | Body Weight (g)/Day (30 mg/kg oral daily, Day 4): 43 ± 3.9 g | Body Weight (g)/Day (30 mg/kg oral daily, Day 5): 43.1 ± 3.9 g | Body Weight (g)/Day (30 mg/kg oral daily, Day 6): 43 ± 4.1 g | Body Weight (g)/Day (30 mg/kg oral daily, Day 7): 42.8 ± 4 g | Body Weight (g)/Day (30 mg/kg oral daily, Day 8): 43.1 ± 4.3 g | Body Weight (g)/Day (30 mg/kg oral daily, Day 9): 42.9 ± 4.5 g | Body Weight (g)/Day (30 mg/kg oral daily, Day 10): 43.3 ± 4.5 g | Body Weight (g)/Day (30 mg/kg oral daily, Day 11): 43.1 ± 4.6 g | Body Weight (g)/Day (30 mg/kg oral daily, Day 12): 42.7 ± 4.6 g | Body Weight (g)/Day (30 mg/kg oral daily, Day 13): 42.5 ± 4.6 g | Body Weight (g)/Day (30 mg/kg oral daily, Day 14): 42.3 ± 4.6 g | Body Weight (g)/Day (30 mg/kg oral daily, Day 15): 42.6 ± 4.5 g | Body Weight (g)/Day (30 mg/kg oral daily, Day 16): 42.5 ± 4.5 g | Body Weight (g)/Day (30 mg/kg oral daily, Day 17): 41.7 ± 4.6 g | Body Weight (g)/Day (30 mg/kg oral daily, Day 18): 42.1 ± 4.8 g | Body Weight (g)/Day (30 mg/kg oral daily, Day 19): 42.2 ± 4.7 g | Body Weight (g)/Day (30 mg/kg oral daily, Day 20): 42.2 ± 4.5 g | Body Weight (g)/Day (30 mg/kg oral daily, Day 21): 42.3 ± 4.7 g | Body Weight (g)/Day (30 mg/kg oral daily, Day 22): 42.4 ± 4.7 g | Body Weight (g)/Day (30 mg/kg oral daily, Day 23): 42.6 ± 4.7 g | Body Weight (g)/Day (30 mg/kg oral daily, Day 24): 42.6 ± 4.4 g | Body Weight (g)/Day (30 mg/kg oral daily, Day 25): 42.5 ± 4.8 g | Body Weight (g)/Day (30 mg/kg oral daily, Day 26): 42.8 ± 4.7 g | Body Weight (g)/Day (30 mg/kg oral daily, Day 27): 43 ± 4.8 g | Body Weight (g)/Day (30 mg/kg oral daily, Day 28): 42.9 ± 4.7 g | Body Weight (g)/Day (30 mg/kg oral daily, Day 29): 42.3 ± 4.4 g | Body Weight (g)/Day (30 mg/kg oral daily, Day 30): 40.4 ± 4.2 g | Body Weight (g)/Day (30 mg/kg oral daily, Day 31): 40.9 ± 4.2 g | Body Weight (g)/Day (30 mg/kg oral daily, Day 32): 40.3 ± 4.1 g | Body Weight (g)/Day (30 mg/kg, Day 0 (pre-dose)): 42.1 ± 4.8 g | eWAT coefficient versus control group (30 mg/kg, Day 33): slightly lower than that of the control group | Body Weight (g)/Day (30 mg/kg, Day −1 (pre-dose)): 41.7 ± 4.6 g | Body Weight (g)/Day (30 mg/kg, Day −2 (pre-dose)): 42.5 ± 4.5 g | mean adipose weights versus control group (30 mg/kg): significantly lower than that of the control group | ITT blood glucose versus control group (Day 32, at 30 minutes and 60 minutes after insulin): significantly lower than that of the control group

— patent US20250275959A1, “COMPOUNDS AND METHODS OF THEIR USE” (LEXICON PHARMACEUTICALS, INC., priority 2024, published 2025)
